# Experimental data taken from US11229618B2 (Amarin Pharmaceuticals Ireland Limited, priority 2012, dated 2022).
# Experiment: ANCHOR: plasma fatty acid concentrations, ratios and class proportions (GC/FID)
# Type: in vivo, human
# Settings: for AA plasma Placebo-adjusted percent change from baseline / DHA plasma Placebo-adjusted percent change from baseline / DPAn-3 plasma Placebo-adjusted percent change from baseline / Linoleic plasma Placebo-adjusted percent change from baseline / Oleic plasma Placebo-adjusted percent change from baseline / Palmitic plasma Placebo-adjusted percent change from baseline / Ratio of AA/EPA plasma Placebo-adjusted percent change from baseline / Ratio of total ω-3/total ω-6 plasma Placebo-adjusted percent change from baseline / Stearic plasma Placebo-adjusted percent change from baseline: week 12, LS mean; for Monounsaturated, proportion of total fatty acids, plasma, Change from baseline / Saturated, proportion of total fatty acids, plasma, Change from baseline / Total ω-3, proportion of total fatty acids, plasma, Change from baseline / Total ω-6, proportion of total fatty acids, plasma, Change from baseline: LS mean (SE); for AA plasma Change from baseline / DHA plasma Change from baseline / DPAn-3 plasma Change from baseline / Linoleic plasma Change from baseline / Oleic plasma Change from baseline / Palmitic plasma Change from baseline / Ratio of AA/EPA plasma Change from baseline / Ratio of total ω-3/total ω-6 plasma Change from baseline / Stearic plasma Change from baseline: baseline to week 12, LS mean; for AA plasma End-of-treatment / DHA plasma End-of-treatment / DPAn-3 plasma End-of-treatment / Linoleic plasma End-of-treatment / Oleic plasma End-of-treatment / Palmitic plasma End-of-treatment / Ratio of AA/EPA plasma End-of-treatment / Ratio of total ω-3/total ω-6 plasma End-of-treatment / Stearic plasma End-of-treatment: week 12, mean; for Monounsaturated, proportion of total fatty acids, plasma, End-of-treatment / Saturated, proportion of total fatty acids, plasma, End-of-treatment / Total ω-3, proportion of total fatty acids, plasma, End-of-treatment / Total ω-6, proportion of total fatty acids, plasma, End-of-treatment: week 12, mean (SD)
# Procedure: A multi-center, placebo-controlled, randomized, double-blind, 12-week study was performed to evaluate the efficacy and safety of >96% E-EPA in patients with fasting triglyceride levels≥200 mg/dl and <500 mg/dl despite statin therapy (the mean of two qualifying entry values needed to be ≥185 mg/dl and at least one of the values needed to be ≥200 mg/dl). The primary objective of the study was to determine the efficacy of >96% E-EPA 2 g daily and 4 g daily, compared to placebo, in lowering fasting TG levels in patients with high risk for cardiovascular disease and with fasting TG levels≥200 mg/dL and <500 mg/dL, despite treatment to LDL-C goal on statin therapy.
# During the double-blind treatment period, patients were to take 2 capsules (>96% E-EPA or matching placebo) in the morning and 2 capsules in the evening for a total of 4 capsules per day. • Patients in the >96% E-EPA 2 g/day treatment group received 1>96% E-EPA 1 g capsule and 1 matching placebo capsule in the morning and in the evening. • Patients in the >96% E-EPA 4 g/day treatment group received 2>96% E-EPA 1 g capsules in the morning and evening. • Patients in the placebo group received 2 matching placebo capsules in the morning and evening.
# Lipids were extracted from plasma and red blood cell (“RBC”) suspensions and converted into fatty acid methyl esters for analysis using a standard validated gas chromatography/flame ionization detection method. Fatty acid parameters were compared between EPA treatment groups and placebo using an ANCOVA model with treatment, gender, type of statin therapy, and presence of diabetes as factors, and the baseline parameter value as a covariate. LSMs, SEs, and 2-tailed 95% confidence intervals for each treatment group and for each comparison were determined.
# The monounsaturated fatty acid group included myristoleic, palmitoleic, cis-vaccenic, oleic, gondoic/gadoleic, erucic and nervonic acids. The saturated fatty acid group included myristic, palmitic, stearic, arachidic, behenic and lignoceric acids. The “total ω-3” group included α-linolenic, stearidonic, eicosatrienoic, ω-3 arachidonic, eicosapentaenoic, ω-3 docosapentaenoic and docosahecaenoic acids. The “total ω-6” group included linoleic, γ-linolenic, eicosadienoic, dihomo-γ-linolenic, ω-6 arachidonic, adrenic, and ω-6 docosapentaenoic acids. The “total fatty acid” group represented the sum of the monounsaturated, saturated, total ω-3 and total ω-6 groups.
smiles,measurement,setting,value
"CC/C=C\C/C=C\C/C=C\C/C=C\C/C=C\CCCC(=O)OCC [IPE, all-cis eicosa-5,8,11,14,17-pentaenoic acid ethyl ester]","Monounsaturated, proportion of total fatty acids, plasma, Placebo-adjusted percent change from baseline",2 g/day vs placebo,−1.4%
same,"Saturated, proportion of total fatty acids, plasma, Placebo-adjusted percent change from baseline",2 g/day vs placebo,−0.2%
same,"Total ω-3, proportion of total fatty acids, plasma, Placebo-adjusted percent change from baseline",2 g/day vs placebo,60.3%
same,"Total ω-6, proportion of total fatty acids, plasma, Placebo-adjusted percent change from baseline",2 g/day vs placebo,−4.6%
same,AA plasma Placebo-adjusted percent change from baseline,2 g/day vs placebo,−19.1%
same,DHA plasma Placebo-adjusted percent change from baseline,2 g/day vs placebo,−0.7%
same,DPAn-3 plasma Placebo-adjusted percent change from baseline,2 g/day vs placebo,88.9%
same,Linoleic plasma Placebo-adjusted percent change from baseline,2 g/day vs placebo,−14.5%
same,Oleic plasma Placebo-adjusted percent change from baseline,2 g/day vs placebo,−14.3%
same,Palmitic plasma Placebo-adjusted percent change from baseline,2 g/day vs placebo,−12.1%
same,Ratio of AA/EPA plasma Placebo-adjusted percent change from baseline,2 g/day vs placebo,−75.4%
same,Ratio of total ω-3/total ω-6 plasma Placebo-adjusted percent change from baseline,2 g/day vs placebo,64.3%
same,Stearic plasma Placebo-adjusted percent change from baseline,2 g/day vs placebo,−12.6%
same,"Monounsaturated, proportion of total fatty acids, plasma, Change from baseline",2 g/day,−0.7 (0.4) mol %
same,"Saturated, proportion of total fatty acids, plasma, Change from baseline",2 g/day,−0.7 (0.3) mol %
same,"Total ω-3, proportion of total fatty acids, plasma, Change from baseline",2 g/day,2.1 (0.2) mol %
same,"Total ω-6, proportion of total fatty acids, plasma, Change from baseline",2 g/day,−0.8 (0.5) mol %
same,AA plasma Change from baseline,2 g/day,−31.1
same,DHA plasma Change from baseline,2 g/day,5.0
same,DPAn-3 plasma Change from baseline,2 g/day,22.4
same,Linoleic plasma Change from baseline,2 g/day,−35.0
same,Oleic plasma Change from baseline,2 g/day,−61.7
same,Palmitic plasma Change from baseline,2 g/day,−50.1
same,Ratio of AA/EPA plasma Change from baseline,2 g/day,−11.2
same,Ratio of total ω-3/total ω-6 plasma Change from baseline,2 g/day,0.1
same,Stearic plasma Change from baseline,2 g/day,−19.6
same,AA plasma End-of-treatment,2 g/day,266.7
same,DHA plasma End-of-treatment,2 g/day,62.7
same,DPAn-3 plasma End-of-treatment,2 g/day,44.3
same,Linoleic plasma End-of-treatment,2 g/day,1082
same,Oleic plasma End-of-treatment,2 g/day,972.1
same,Palmitic plasma End-of-treatment,2 g/day,1004
same,Ratio of AA/EPA plasma End-of-treatment,2 g/day,3.4
same,Ratio of total ω-3/total ω-6 plasma End-of-treatment,2 g/day,0.2
same,Stearic plasma End-of-treatment,2 g/day,276.2
same,"Monounsaturated, proportion of total fatty acids, plasma, End-of-treatment",2 g/day,28.0 (2.8) mol %
same,"Saturated, proportion of total fatty acids, plasma, End-of-treatment",2 g/day,33.6 (2.2) mol %
same,"Total ω-3, proportion of total fatty acids, plasma, End-of-treatment",2 g/day,5.1 (1.2) mol %
same,"Total ω-6, proportion of total fatty acids, plasma, End-of-treatment",2 g/day,33.3 (3.4) mol %
same,"Monounsaturated, proportion of total fatty acids, plasma, Placebo-adjusted percent change from baseline",4 g/day vs placebo,−5.8%
same,"Saturated, proportion of total fatty acids, plasma, Placebo-adjusted percent change from baseline",4 g/day vs placebo,0.4%
same,"Total ω-3, proportion of total fatty acids, plasma, Placebo-adjusted percent change from baseline",4 g/day vs placebo,142.2%
same,"Total ω-6, proportion of total fatty acids, plasma, Placebo-adjusted percent change from baseline",4 g/day vs placebo,−7.4%
same,AA plasma Placebo-adjusted percent change from baseline,4 g/day vs placebo,−30.7%
same,DHA plasma Placebo-adjusted percent change from baseline,4 g/day vs placebo,−2.9%
same,DPAn-3 plasma Placebo-adjusted percent change from baseline,4 g/day vs placebo,143.6%
same,Linoleic plasma Placebo-adjusted percent change from baseline,4 g/day vs placebo,−24.8%
same,Oleic plasma Placebo-adjusted percent change from baseline,4 g/day vs placebo,−30.1%
same,Palmitic plasma Placebo-adjusted percent change from baseline,4 g/day vs placebo,−23.3%
same,Ratio of AA/EPA plasma Placebo-adjusted percent change from baseline,4 g/day vs placebo,−90.3%
same,Ratio of total ω-3/total ω-6 plasma Placebo-adjusted percent change from baseline,4 g/day vs placebo,165.9%
same,Stearic plasma Placebo-adjusted percent change from baseline,4 g/day vs placebo,−16.5%
same,"Monounsaturated, proportion of total fatty acids, plasma, Change from baseline",4 g/day,−2.0 (0.4) mol %
same,"Saturated, proportion of total fatty acids, plasma, Change from baseline",4 g/day,−0.5 (0.3) mol %
same,"Total ω-3, proportion of total fatty acids, plasma, Change from baseline",4 g/day,4.4 (0.2) mol %
same,"Total ω-6, proportion of total fatty acids, plasma, Change from baseline",4 g/day,−1.8 (0.5) mol %
same,AA plasma Change from baseline,4 g/day,−60.1
same,DHA plasma Change from baseline,4 g/day,2.3
same,DPAn-3 plasma Change from baseline,4 g/day,31.8
same,Linoleic plasma Change from baseline,4 g/day,−152
same,Oleic plasma Change from baseline,4 g/day,−219
same,Palmitic plasma Change from baseline,4 g/day,−161
same,Ratio of AA/EPA plasma Change from baseline,4 g/day,−14.1
same,Ratio of total ω-3/total ω-6 plasma Change from baseline,4 g/day,0.2
same,Stearic plasma Change from baseline,4 g/day,−31.2
same,AA plasma End-of-treatment,4 g/day,222.8
same,DHA plasma End-of-treatment,4 g/day,53.6
same,DPAn-3 plasma End-of-treatment,4 g/day,50.2
same,Linoleic plasma End-of-treatment,4 g/day,921.8
same,Oleic plasma End-of-treatment,4 g/day,782.5
same,Palmitic plasma End-of-treatment,4 g/day,843.8
same,Ratio of AA/EPA plasma End-of-treatment,4 g/day,1.6
same,Ratio of total ω-3/total ω-6 plasma End-of-treatment,4 g/day,0.2
same,Stearic plasma End-of-treatment,4 g/day,253.4
same,"Monounsaturated, proportion of total fatty acids, plasma, End-of-treatment",4 g/day,26.7 (3.0) mol %
same,"Saturated, proportion of total fatty acids, plasma, End-of-treatment",4 g/day,33.6 (2.4) mol %
same,"Total ω-3, proportion of total fatty acids, plasma, End-of-treatment",4 g/day,7.1 (2.0) mol %
same,"Total ω-6, proportion of total fatty acids, plasma, End-of-treatment",4 g/day,32.6 (3.5) mol %
